From patent US20260217697A1, “COMPOUNDS COMPRISING HETEROARYL RINGS AND COMPOSITIONS AND METHODS THEREOF” (lonGen Therapeutics Co., Ltd., priority 2022, published 2026)

What follows are compounds tested against T1, hTRPV3 (Homo sapiens, UniProt Q8NET8) (assay: Whole-cell patch-clamp recording of hTRPV3 current in transfected HEK293T cells (2-APB induced)). Conditions: current induced by 300 μM 2-APB, compounds tested up to 10 μM, room temperature.
T1 construct: The commercially available plasmid with the full-length cDNA of hTRPV3 (791 aa) (NM_001258205.2); host or cells: HEK293T
T1 sequence (Q8NET8 1-791 isoform Q8NET8-2): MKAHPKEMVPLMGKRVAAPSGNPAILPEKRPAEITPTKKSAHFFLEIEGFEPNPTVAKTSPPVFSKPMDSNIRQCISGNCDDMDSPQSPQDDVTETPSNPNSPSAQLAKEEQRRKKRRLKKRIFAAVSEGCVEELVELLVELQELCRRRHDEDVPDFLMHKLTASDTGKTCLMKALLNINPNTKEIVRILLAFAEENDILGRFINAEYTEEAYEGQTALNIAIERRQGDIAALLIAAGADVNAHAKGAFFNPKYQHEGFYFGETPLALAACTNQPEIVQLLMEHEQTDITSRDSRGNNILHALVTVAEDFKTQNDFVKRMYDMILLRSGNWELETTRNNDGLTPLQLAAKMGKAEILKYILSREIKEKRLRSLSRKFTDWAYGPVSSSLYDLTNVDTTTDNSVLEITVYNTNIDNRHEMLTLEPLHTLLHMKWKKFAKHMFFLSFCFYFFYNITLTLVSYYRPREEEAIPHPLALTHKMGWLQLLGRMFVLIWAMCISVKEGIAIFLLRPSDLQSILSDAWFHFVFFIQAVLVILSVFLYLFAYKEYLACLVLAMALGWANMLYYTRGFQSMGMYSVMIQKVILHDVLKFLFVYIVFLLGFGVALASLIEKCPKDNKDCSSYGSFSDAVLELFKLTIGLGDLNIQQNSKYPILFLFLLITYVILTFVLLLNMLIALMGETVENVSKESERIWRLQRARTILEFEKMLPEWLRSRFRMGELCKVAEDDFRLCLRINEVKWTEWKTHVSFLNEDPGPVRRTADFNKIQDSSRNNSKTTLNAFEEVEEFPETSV
Type: cell-based
Outline: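 HEK293T cells transiently expressing full-length hTRPV3, recorded by whole-cell patch clamp 18 h post-transfection at room temperature, with 130 mM NaCl/0.3 mM EDTA/3 mM HEPES pH 7.4 on both sides. Holding potential 0 mV; 400-ms steps to +80 and −80 mV every 2 s. Block of 2-APB-evoked current, tested up to 10 μM, fitted to Hill equation for IC50.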

SMILES | IC50 [µM]
COc1ncnc(OC)c1C(=O)Nc1nc2c(s1)C(CO)(CO)Oc1cc(C(F)(F)F)ccc1-2 [compound 113, N-(4,4-bis(hydroxymethyl)-7-(trifluoromethyl)-4H-chromeno[4,3-d]thiazol-2-yl)-4,6-dimethoxypyrimidine-5-carboxamide] | 1 to 10
COc1ncnc(OC)c1C(=O)Nc1nc2c(s1)C(C)(CCCC(=O)O)Oc1cc(C(F)(F)F)ccc1-2 (stereo not shown) [compound 114, 4-(2-(4,6-dimethoxypyrimidine-5-carboxamido)-4-methyl-7-(trifluoromethyl)-4H-chromeno[4,3-d]thiazol-4-yl) butanoic acid] | 1 to 10
COc1ncnc(OC)c1C(=O)Nc1nc2c(s1)C1(CN(C(=O)OC(C)C)C1)Oc1cc(C(F)(F)F)ccc1-2 [compound 115, isopropyl 2′-(4,6-dimethoxypyrimidine-5-carboxamido)-7′-(trifluoromethyl)spiro[azetidine-3,4′-chromeno[4,3-d]thiazole]-1-carboxylate] | 0.1 to 1
COc1ncnc(OC)c1C(=O)Nc1nc2c(s1)C1(CCC(C(=O)N(C)C)CC1)Oc1cc(C(F)(F)F)ccc1-2 (stereo not shown) [compound 116, 2-(4,6-dimethoxypyrimidine-5-carboxamido)-N,N-dimethyl-7-(trifluoromethyl)spiro[chromeno[4,3-d]thiazole-4,1′-cyclohexane]-4′-carboxamide] | 1 to 10
CCC1(CC)Oc2cc(C(C)=O)ccc2-c2nc(NC(=O)c3c(OC)ncnc3OC)sc21 [compound 117, N-(7-acetyl-4,4-diethyl-4H-chromeno[4,3-d]thiazol-2-yl)-4,6-dimethoxypyrimidine-5-carboxamide] | 1 to 10
COCOCC1(COCOC)Oc2cc(C(F)(F)F)ccc2-c2nc(NC(=O)c3c(OC)ncnc3OC)sc21 [compound 118] | 0.1 to 1
C=CCc1ncnc(OC)c1C(=O)Nc1nc2c(s1)C(CC)(CC)Oc1cc(C(F)(F)F)ccc1-2 [compound 119, 4-allyl-N-(4,4-diethyl-7-(trifluoromethyl)-4H-chromeno[4,3-d]thiazol-2-yl)-6-methoxypyrimidine-5-carboxamide] | 1 to 10
CCC1(CC)Oc2cc(C(F)(F)F)ccc2-c2nc(NC(=O)c3c(NC)ncnc3OC)sc21 [compound 120, N-(4,4-diethyl-7-(trifluoromethyl)-4H-chromeno[4,3-d]thiazol-2-yl)-4-methoxy-6-(methylamino)pyrimidine-5-carboxamide] | 1 to 10
CCC1(CC)Oc2cc(C(F)(F)F)ccc2-c2nc(NC(=O)c3c(O)ncnc3OC)sc21 [compound 121, N-(4,4-diethyl-7-(trifluoromethyl)-4H-chromeno[4,3-d]thiazol-2-yl)-4-hydroxy-6-methoxypyrimidine-5-carboxamide] | ≥ 10
CCC1(CC)Oc2cc(C(F)(F)F)ccc2-c2nc(NC(=O)c3c(OC)ncnc3OCOC)sc21 [compound 122, N-(4,4-diethyl-7-(trifluoromethyl)-4H-chromeno[4,3-d]thiazol-2-yl)-4-methoxy-6-(methoxymethoxy)pyrimidine-5-carboxamide] | ≥ 10
COc1ncnc(OC)c1C(=O)Nc1nc2c(s1)C1(CCC(C(=O)OC(C)C)CC1)Oc1cc(C(F)(F)F)ccc1-2 (stereo not shown) [compound 123, isopropyl 2-(4,6-dimethoxypyrimidine-5-carboxamido)-7-(trifluoromethyl)spiro[chromeno[4,3-d]thiazole-4,1′-cyclohexane]-4′-carboxylate] | < 0.1
CCC1(CC)Oc2cc(C)ccc2-c2nc(NC(=O)c3c(OC)ncnc3OC)sc21 [compound 124, N-(4,4-diethyl-7-methyl-4H-chromeno[4,3-d]thiazol-2-yl)-4,6-dimethoxypyrimidine-5-carboxamide] | 0.1 to 1
COc1ncnc(OC)c1C(=O)Nc1nc2c(s1)C1(CCC(C(=O)NC(C)C)CC1)Oc1cc(C(F)(F)F)ccc1-2 (stereo not shown) [compound 125, 2-(4,6-dimethoxypyrimidine-5-carboxamido)-N-isopropyl-7-(trifluoromethyl)spiro[chromeno[4,3-d]thiazole-4,1′-cyclohexane]-4′-carboxamide] | 1 to 10
COc1ncnc(OC)c1C(=O)Nc1nc2c(s1)C1(CCC(C(=O)N(C)Cc3ccccc3)CC1)Oc1cc(C(F)(F)F)ccc1-2 (stereo not shown) [compound 126, N-benzyl-2-(4,6-dimethoxypyrimidine-5-carboxamido)-N-methyl-7-(trifluoromethyl)spiro[chromeno[4,3-d]thiazole-4,1′-cyclohexane]-4′-carboxamide] | 0.1 to 1
COc1ncnc(OC)c1C(=O)Nc1nc2c(s1)C1(CCC(C(=O)N(C)C(C)C)CC1)Oc1cc(C(F)(F)F)ccc1-2 (stereo not shown) [compound 127, 2-(4,6-dimethoxypyrimidine-5-carboxamido)-N-isopropyl-N-methyl-7-(trifluoromethyl)spiro[chromeno[4,3-d]thiazole-4,1′-cyclohexane]-4′-carboxamide] | 0.1 to 1
CCOC(=O)[C@H]1CC[C@]2(CC1)Oc1cc(Br)ccc1-c1nc(NC(=O)c3c(OC)ncnc3OC)sc12 [compound 128] | 0.1 to 1
CCOC(=O)[C@H]1CC[C@@]2(CC1)Oc1cc(Br)ccc1-c1nc(NC(=O)c3c(OC)ncnc3OC)sc12 [compound 129] | 0.1 to 1
CCOC(=O)[C@H]1CC[C@@]2(CC1)Oc1cc(C(C)C)ccc1-c1nc(NC(=O)c3c(OC)ncnc3OC)sc12 [compound 130] | 1 to 10
COc1ncnc(OC)c1C(=O)Nc1nc2c(s1)C1(CC(NC(=O)OC(C)(C)C)C1)Oc1cc(C(F)(F)F)ccc1-2 (stereo not shown) [compound 131, tert-butyl(2-(4,6-dimethoxypyrimidine-5-carboxamido)-7-(trifluoromethyl)spiro[chromeno[4,3-d]thiazole-4,1′-cyclobutan]-3′-yl)carbamate] | 0.1 to 1
COc1ncnc(OC)c1C(=O)Nc1nc2c(s1)C1(CN(C(=O)OC(C)(C)C)C1)Oc1cc(C(C)C)ccc1-2 [compound 132, tert-butyl 2′-(4,6-dimethoxypyrimidine-5-carboxamido)-7′-isopropylspiro[azetidine-3,4′-chromeno[4,3-d]thiazole]-1-carboxylate] | 0.1 to 1
CCOC(=O)C1CC2(C1)Oc1cc(C(F)(F)F)ccc1-c1nc(NC(=O)c3c(OC)ncnc3OC)sc12 (stereo not shown) [compound 133, ethyl 2-(4,6-dimethoxypyrimidine-5-carboxamido)-7-(trifluoromethyl)spiro[chromeno[4,3-d]thiazole-4,1′-cyclobutane]-3′-carboxylate] | < 0.1
COc1ncnc(OC)c1C(=O)Nc1nc2c(s1)C1(COC1)Oc1cc(Br)ccc1-2 [compound 134, N-(7-bromospiro[chromeno[4,3-d]thiazole-4,3′-oxetan]-2-yl)-4,6-dimethoxypyrimidine-5-carboxamide] | 0.1 to 1
COc1ncnc(OC)c1C(=O)Nc1nc2c(s1)C1(COC1)Oc1cc(C(C)C)ccc1-2 [compound 135, N-(7-isopropylspiro[chromeno[4,3-d]thiazole-4,3′-oxetan]-2-yl)-4,6-dimethoxypyrimidine-5-carboxamide] | < 0.1
COc1ncnc(OC)c1C(=O)Nc1nc2c(s1)C1(CN(C(C)C)C1)Oc1cc(C(F)(F)F)ccc1-2 [compound 136, N-(1-isopropyl-7′-(trifluoromethyl)spiro[azetidine-3,4′-chromeno[4,3-d]thiazol]-2′-yl)-4,6-dimethoxypyrimidine-5-carboxamide] | < 0.1
COc1ncnc(OC)c1C(=O)Nc1nc2c(s1)C1(COC1)Oc1cc(C#N)ccc1-2 [compound 137, N-(7-cyanospiro[chromeno[4,3-d]thiazole-4,3′-oxetan]-2-yl)-4,6-dimethoxypyrimidine-5-carboxamide] | ≥ 10
COc1ncnc(OC)c1C(=O)Nc1nc2c(s1)C1(COC1)Oc1cc(C3CC3)ccc1-2 [compound 138, N-(7-cyclopropylspiro[chromeno[4,3-d]thiazole-4,3′-oxetan]-2-yl)-4,6-dimethoxypyrimidine-5-carboxamide] | 0.1 to 1
COc1ncnc(OC)c1C(=O)Nc1nc2c(s1)C1(COC1)Oc1cc(C(C)(C)O)ccc1-2 [compound 139, N-(7-(2-hydroxypropan-2-yl)spiro[chromeno[4,3-d]thiazole-4,3′-oxetan]-2-yl)-4,6-dimethoxypyrimidine-5-carboxamide] | ≥ 10
COc1ncnc(OC)c1C(=O)Nc1nc2c(s1)C1(COC1)Oc1cc(C(C)(C)C#N)ccc1-2 [compound 140, N-(7-(2-cyanopropan-2-yl)spiro[chromeno[4,3-d]thiazole-4,3′-oxetan]-2-yl)-4,6-dimethoxypyrimidine-5-carboxamide] | 1 to 10
